According to US11608338B2, “Imidazolonylquinolines and the use thereof as ATM kinase inhibitors” (priority 2015, dated 2023):

Columns and labels:
Format in all cases: biochemical
PI3K p110α/p85α (human) = PI3K p110α/p85α (human) (Homo sapiens (Human), UniProt P42336); assay: PI3K p110α/p85α (human), non-radioactive assay (HTRF); details: ATM versus PI3Kalpha
Description: PI3K p110α/p85α (Human), Non-Radioactive Assay
(§1) PI3K p110α/p85α (human) was incubated in an assay buffer comprising 10 μM phosphatidylinositol 4,5-bisphosphate and MgATP (concentration as necessary). The reaction was initiated by addition of MgATP solution. After incubation at room temperature for 40 minutes, the reaction was stopped by addition of a solution consisting of EDTA and biotinylated phosphatidylinositol 3,4,5-trisphosphate. Finally, the detection buffer, consisting of a europium-labelled anti-GST monoclonal antibody, a GST-labelled GRP1 PH domain and streptavidin allophycocyanin, was added. The plate was read out via homogeneous time-resolved fluorescence (HTRF) and the corresponding signals were evaluated via the formula HTRF=10000×(Em665 nm/Em620 nm).

PI3K p110δ/p85α (human) = PI3K p110δ/p85α (human) (Homo sapiens (Human), UniProt O00329); assay: PI3K p110δ/p85α (human), non-radioactive assay (HTRF); details: ATM versus PI3Kdelta
PI3K p110δ/p85α (human), sequence (O00329 whole entry): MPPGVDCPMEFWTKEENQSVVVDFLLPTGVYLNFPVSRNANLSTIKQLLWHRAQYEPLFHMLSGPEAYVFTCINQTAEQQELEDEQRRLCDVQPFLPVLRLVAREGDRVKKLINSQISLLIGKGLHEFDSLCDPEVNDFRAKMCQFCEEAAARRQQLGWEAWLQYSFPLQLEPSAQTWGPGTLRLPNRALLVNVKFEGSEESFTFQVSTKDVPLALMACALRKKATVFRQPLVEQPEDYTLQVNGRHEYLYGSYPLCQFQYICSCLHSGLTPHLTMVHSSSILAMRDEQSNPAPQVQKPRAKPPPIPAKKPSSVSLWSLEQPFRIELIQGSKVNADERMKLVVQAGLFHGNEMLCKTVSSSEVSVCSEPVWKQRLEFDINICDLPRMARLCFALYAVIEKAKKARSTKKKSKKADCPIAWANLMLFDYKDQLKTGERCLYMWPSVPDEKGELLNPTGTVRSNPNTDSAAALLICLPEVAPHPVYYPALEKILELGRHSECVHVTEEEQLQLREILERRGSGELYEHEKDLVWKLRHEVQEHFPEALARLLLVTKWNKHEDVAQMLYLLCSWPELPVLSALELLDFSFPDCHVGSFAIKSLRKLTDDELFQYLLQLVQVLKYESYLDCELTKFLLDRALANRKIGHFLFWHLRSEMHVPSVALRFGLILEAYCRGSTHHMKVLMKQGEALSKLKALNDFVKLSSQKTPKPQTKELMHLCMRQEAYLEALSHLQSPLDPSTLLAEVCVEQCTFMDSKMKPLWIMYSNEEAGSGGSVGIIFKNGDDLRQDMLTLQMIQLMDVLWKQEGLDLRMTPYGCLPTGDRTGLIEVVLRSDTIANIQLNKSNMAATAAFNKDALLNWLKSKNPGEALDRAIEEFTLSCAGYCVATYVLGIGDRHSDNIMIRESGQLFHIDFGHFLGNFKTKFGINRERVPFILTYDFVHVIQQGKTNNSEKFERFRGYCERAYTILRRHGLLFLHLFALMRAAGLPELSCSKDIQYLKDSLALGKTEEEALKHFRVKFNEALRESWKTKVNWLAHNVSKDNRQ
PI3K p110δ/p85α (human), sequence (P27986 whole entry partner): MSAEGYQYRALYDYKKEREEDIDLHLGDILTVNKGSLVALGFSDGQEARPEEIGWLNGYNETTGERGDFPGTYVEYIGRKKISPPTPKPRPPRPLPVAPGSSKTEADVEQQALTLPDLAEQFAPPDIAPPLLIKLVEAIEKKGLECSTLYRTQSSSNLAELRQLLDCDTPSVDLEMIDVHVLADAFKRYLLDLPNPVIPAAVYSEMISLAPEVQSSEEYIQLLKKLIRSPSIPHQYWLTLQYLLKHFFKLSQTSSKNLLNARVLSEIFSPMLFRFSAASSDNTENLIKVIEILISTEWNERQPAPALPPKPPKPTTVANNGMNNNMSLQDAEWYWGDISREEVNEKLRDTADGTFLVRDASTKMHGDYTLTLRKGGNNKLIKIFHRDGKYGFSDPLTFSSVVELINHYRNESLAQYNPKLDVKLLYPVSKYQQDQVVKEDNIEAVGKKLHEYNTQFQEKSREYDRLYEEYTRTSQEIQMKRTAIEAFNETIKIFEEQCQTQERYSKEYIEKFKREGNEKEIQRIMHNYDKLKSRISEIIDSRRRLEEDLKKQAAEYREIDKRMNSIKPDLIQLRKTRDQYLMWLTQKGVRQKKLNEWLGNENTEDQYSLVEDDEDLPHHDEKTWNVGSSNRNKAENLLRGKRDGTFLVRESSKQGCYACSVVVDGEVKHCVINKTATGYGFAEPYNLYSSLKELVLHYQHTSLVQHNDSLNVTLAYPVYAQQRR
Description: PI3K p110δ/p85α (Human), Non-Radioactive Assay
as §1, with “p110δ/p85α” for “p110α/p85α”, “After an” for “After”, “incubation time of 30 min” for “incubation”, “temperature,” for “temperature for 40 minutes,”

PI3K (p120γ) (human) = PI3K (p120γ) (human) (Homo sapiens (Human), UniProt P48736); assay: PI3K (p120γ) (human), non-radioactive assay (HTRF); details: ATM versus PI3Kgamma
PI3K (p120γ) (human), sequence (P48736 whole entry): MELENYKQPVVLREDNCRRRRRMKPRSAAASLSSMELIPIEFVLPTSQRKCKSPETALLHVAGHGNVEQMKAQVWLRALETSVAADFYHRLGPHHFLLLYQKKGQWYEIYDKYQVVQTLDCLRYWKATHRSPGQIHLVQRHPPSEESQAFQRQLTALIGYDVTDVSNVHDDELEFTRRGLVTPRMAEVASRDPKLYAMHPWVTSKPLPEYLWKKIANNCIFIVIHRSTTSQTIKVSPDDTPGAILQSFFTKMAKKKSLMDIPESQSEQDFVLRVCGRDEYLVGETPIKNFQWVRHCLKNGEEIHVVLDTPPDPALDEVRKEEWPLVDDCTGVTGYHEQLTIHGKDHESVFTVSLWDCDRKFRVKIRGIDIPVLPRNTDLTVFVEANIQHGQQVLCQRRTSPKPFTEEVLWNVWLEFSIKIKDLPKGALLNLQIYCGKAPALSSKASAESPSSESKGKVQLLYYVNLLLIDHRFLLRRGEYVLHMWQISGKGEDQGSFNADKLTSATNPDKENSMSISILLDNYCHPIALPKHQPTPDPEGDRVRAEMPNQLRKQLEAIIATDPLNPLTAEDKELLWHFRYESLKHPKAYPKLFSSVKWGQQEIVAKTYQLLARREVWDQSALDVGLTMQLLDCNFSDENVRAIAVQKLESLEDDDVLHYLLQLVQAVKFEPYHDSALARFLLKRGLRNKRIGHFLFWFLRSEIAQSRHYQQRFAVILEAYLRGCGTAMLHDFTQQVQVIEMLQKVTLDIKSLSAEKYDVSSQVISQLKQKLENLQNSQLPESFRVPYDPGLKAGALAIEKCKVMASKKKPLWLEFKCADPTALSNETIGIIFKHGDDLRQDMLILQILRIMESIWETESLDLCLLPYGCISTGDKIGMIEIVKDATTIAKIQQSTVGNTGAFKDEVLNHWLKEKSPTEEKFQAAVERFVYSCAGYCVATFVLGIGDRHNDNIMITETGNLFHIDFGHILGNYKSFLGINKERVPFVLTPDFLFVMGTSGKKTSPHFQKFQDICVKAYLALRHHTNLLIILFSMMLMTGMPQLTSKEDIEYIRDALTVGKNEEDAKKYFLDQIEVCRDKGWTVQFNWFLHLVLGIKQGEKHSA
Description: PI3K (p120γ) (Human), Non-Radioactive Assay
as §1, with “(p120γ)” for “p110α/p85α”, “After an” for “After”, “incubation time of 30 min” for “incubation”, “temperature,” for “temperature for 40 minutes,”, “nm). • MgATP=magnesium 5′-O-[hydroxy({[(hydroxyphosphinato)oxy]phosphinato}oxy)phosphoryl]adenosine • MgCl2=magnesium dichloride • EGTA=ethylene glycol bis(aminoethyl ether) N,N,N′,N′-tetraacetic acid • Tween 20=polysorbate 20 Medicament/Pharmaceutical Composition” for “nm).”

mTOR (human) = mTOR (human) (Homo sapiens (Human), UniProt P42345); assay: mTOR (human) radiometric kinase assay; details: ATM versus mTOR
Description: Furthermore, the effect, in particular inhibition, of other kinases and thus the selectivity of the compounds according to the invention can be determined with the aid of the following assay:
mTOR (human) was incubated with 50 mM HEPES pH 7.5, 1 mM EGTA, 0.01% Tween 20, 2 mg/ml of the substrate, 3 mM MnCl2 and [γ-^33P-ATP] (specific activity approximately 500 cpm/pmol, concentration as necessary). The reaction was initiated by addition of MgATP solution. After incubation at room temperature for 40 minutes, the reaction was stopped by addition of 3% phosphoric acid. 10 μl of the reaction solution were then transferred dropwise onto a P30 filtermat and washed three times for 5 min in 75 mM phosphoric acid and once in methanol, dried and evaluated by means of liquid scintillation counting.

PI3K p110β/p85α (human) = PI3K p110β/p85α (human) (Homo sapiens (Human), UniProt P42338); assay: PI3K p110β/p85α (human), non-radioactive assay (HTRF); details: ATM versus PI3Kbeta
PI3K p110β/p85α (human), sequence (P42338 whole entry): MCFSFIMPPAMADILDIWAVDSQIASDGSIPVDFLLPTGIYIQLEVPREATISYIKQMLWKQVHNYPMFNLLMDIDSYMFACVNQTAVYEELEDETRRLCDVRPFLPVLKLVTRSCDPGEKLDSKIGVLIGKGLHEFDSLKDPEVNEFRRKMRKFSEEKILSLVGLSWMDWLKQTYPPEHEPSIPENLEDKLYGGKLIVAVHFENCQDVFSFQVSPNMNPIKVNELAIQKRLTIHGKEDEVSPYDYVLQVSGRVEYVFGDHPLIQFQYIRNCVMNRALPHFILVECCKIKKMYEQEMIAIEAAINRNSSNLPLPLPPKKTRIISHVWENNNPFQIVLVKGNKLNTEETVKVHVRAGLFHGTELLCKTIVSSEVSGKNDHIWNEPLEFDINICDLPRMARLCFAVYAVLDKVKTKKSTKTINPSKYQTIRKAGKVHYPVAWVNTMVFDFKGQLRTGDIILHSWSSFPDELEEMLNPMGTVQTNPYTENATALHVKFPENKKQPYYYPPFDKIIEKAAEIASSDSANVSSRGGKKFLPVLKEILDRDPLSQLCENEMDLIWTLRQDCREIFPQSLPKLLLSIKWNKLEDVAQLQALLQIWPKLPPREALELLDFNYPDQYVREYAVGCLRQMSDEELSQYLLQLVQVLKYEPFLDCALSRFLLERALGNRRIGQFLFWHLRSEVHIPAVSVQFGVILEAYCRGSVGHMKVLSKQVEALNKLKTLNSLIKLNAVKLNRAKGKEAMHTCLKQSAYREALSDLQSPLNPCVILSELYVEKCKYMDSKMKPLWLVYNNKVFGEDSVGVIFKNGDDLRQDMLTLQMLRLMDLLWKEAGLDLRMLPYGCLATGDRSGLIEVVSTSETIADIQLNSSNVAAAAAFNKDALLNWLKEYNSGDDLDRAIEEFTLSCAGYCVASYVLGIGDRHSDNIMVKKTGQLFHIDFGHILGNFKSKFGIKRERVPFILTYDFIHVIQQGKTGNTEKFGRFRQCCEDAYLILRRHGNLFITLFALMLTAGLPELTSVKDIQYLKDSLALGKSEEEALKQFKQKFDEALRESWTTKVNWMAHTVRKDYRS
PI3K p110β/p85α (human), sequence (P27986 whole entry partner): as the sequence (P27986 whole entry partner) above
Description: PI3K p110β/p85α (Human), Non-Radioactive Assay
as §1, with “p110β/p85α” for “p110α/p85α”, “After an” for “After”, “incubation time of 30 min” for “incubation”, “temperature,” for “temperature for 40 minutes,”

PI3K p110α/p85α (human), sequence (P42336 whole entry): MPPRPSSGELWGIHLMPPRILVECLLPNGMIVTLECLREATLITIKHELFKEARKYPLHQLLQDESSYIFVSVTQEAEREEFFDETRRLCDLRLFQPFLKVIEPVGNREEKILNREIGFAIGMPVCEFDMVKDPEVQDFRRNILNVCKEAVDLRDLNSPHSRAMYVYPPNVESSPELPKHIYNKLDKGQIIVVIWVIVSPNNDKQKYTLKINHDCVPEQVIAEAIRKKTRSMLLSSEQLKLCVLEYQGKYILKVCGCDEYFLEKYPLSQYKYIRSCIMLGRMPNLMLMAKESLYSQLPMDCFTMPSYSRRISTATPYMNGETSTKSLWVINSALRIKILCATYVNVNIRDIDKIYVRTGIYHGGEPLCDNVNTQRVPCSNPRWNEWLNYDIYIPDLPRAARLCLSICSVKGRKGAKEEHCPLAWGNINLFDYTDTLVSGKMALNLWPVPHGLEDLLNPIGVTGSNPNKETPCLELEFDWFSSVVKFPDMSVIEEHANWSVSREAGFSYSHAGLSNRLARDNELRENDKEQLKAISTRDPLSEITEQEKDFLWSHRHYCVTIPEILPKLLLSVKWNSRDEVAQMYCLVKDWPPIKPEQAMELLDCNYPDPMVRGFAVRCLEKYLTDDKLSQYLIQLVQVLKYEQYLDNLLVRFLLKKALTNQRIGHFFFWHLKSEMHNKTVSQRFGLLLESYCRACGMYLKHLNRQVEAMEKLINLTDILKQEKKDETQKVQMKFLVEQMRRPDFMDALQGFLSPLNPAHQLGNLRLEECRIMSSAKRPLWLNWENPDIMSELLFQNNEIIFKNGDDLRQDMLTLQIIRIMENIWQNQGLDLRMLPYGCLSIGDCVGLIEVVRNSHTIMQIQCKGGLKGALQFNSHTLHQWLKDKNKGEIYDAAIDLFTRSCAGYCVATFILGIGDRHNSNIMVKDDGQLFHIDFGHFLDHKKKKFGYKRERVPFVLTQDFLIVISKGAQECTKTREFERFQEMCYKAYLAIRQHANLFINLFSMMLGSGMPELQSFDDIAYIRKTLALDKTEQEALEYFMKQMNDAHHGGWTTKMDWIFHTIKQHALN
PI3K p110α/p85α (human), sequence (P27986 whole entry partner): as the sequence (P27986 whole entry partner) above

| Structure (SMILES) | ratio of IC50 (ATM) and IC50 (PI3Kalpha), selectivity with respect to PI3Kalpha (PI3K p110α/p85α (human)) | ratio of IC50 (ATM) and IC50 (PI3Kdelta), selectivity with respect to PI3Kdelta (PI3K p110δ/p85α (human)) | ratio of IC50 (ATM) and IC50 (PI3Kgamma), selectivity with respect to PI3Kgamma (PI3K (p120γ) (human)) | ratio IC50 (ATM):IC50 (mTOR), selectivity with respect to mTOR (mTOR (human)) | ratio IC50 (ATM):IC50 (PI3Kbeta), selectivity with respect to PI3Kbeta (PI3K p110β/p85α (human)) |
| --- | --- | --- | --- | --- | --- |
| COCCOc1cnc(-n2c(=O)n(C)c3cnc4cc(OC)c(-c5cnn(C)c5)cc4c32)c(F)c1 [Example 66, 1-[3-Fluoro-5-(2-methoxy-ethoxy)-2-pyridyl]-7-methoxy-3-methyl-8-(1-methylpyrazol-4-yl)imidazo-[4,5-c]quinolin-2-one] | at least 2000 times | at least 2000 times | at least 2000 times | – | – |
| COc1cc2ncc3c(c2cc1-c1cnn(C)c1)n(-c1ncc(OCCO)cc1F)c(=O)n3C [Example 67, 1-[3-Fluoro-5-(2-hydroxy-ethoxy)-2-pyridyl]-7-methoxy-3-methyl-8-(1-methylpyrazol-4-yl)imidazo-[4,5-c]quinolin-2-one] | at least 2000 times | at least 2000 times | at least 2000 times | – | – |
| COc1cc2ncc3c(c2cc1-c1cnn(C)c1)n(-c1ncc(OC(F)F)cc1F)c(=O)n3C [Example 114, 1-(5-Difluoromethoxy-3-fluoropyridin-2-yl)-7-methoxy-3-methyl-8-(1-methyl-1H-pyrazol-4-yl)-1,3-dihydroimidazo[4,5-c]-quinolin-2-one] | at least 2000 times | at least 2000 times | at least 2000 times | at least 2000 times | – |
| COc1cc2ncc3c(c2cc1-c1c[nH]nc1C)n(-c1ncc(F)cc1F)c(=O)n3C [Example 117, 1-(3,5-Difluoropyridin-2-yl)-7-methoxy-3-methyl-8-(3-methyl-1H-pyrazol-4-yl)-1,3-dihydroimidazo[4,5-c]-quinolin-2-one] | at least 2000 times | at least 2000 times | at least 2000 times | – | – |
| COc1cc2ncc3c(c2cc1-c1cnn(C)c1)n(-c1cc2[nH]ccc2cn1)c(=O)n3C [Example 120, 7-Methoxy-3-methyl-8-(1-methyl-1H-pyrazol-4-yl)-1-(1H-pyrrolo[3,2-c]pyridin-6-yl)-1,3-dihydroimidazo-[4,5-c]quinolin-2-one] | at least 2000 times | at least 2000 times | at least 2000 times | at least 2000 times | – |
| COc1cc2ncc3c(c2cc1-c1cc[nH]n1)n(-c1cn(C)nc1C)c(=O)n3C [Example 121, 1-(1,3-Dimethyl-1H-pyrazol-4-yl)-7-methoxy-3-methyl-8-(1H-pyrazol-3-yl)-1,3-dihydroimidazo[4,5-c]-quinolin-2-one] | – | – | – | at least 2000 times | – |
| COc1cnc(-n2c(=O)n(C)c3cnc4cc(OC)c(-c5c[nH]nc5C)cc4c32)c(F)c1 [Example 122, 1-(3-Fluoro-5-methoxy-pyridin-2-yl)-7-methoxy-3-methyl-8-(3-methyl-1H-pyrazol-4-yl)-1,3-dihydro-imidazo[4,5-c]quinolin-2-one] | at least 2000 times | at least 2000 times | at least 2000 times | at least 2000 times | – |
| COc1cc2ncc3c(c2cc1-c1cnn(C)c1)n(-c1ncc(N2CCNCC2)cc1F)c(=O)n3C [Example 123, 1-(3-Fluoro-5-piperazin-1-yl-pyridin-2-yl)-7-methoxy-3-methyl-8-(1-methyl-1H-pyrazol-4-yl)-1,3-dihydro-imidazo[4,5-c]quinolin-2-one] | at least 2000 times | at least 2000 times | at least 2000 times | – | – |
| CCc1cncc(F)c1-n1c(=O)n(C)c2cnc3cc(OC)c(-c4cn(C)nn4)cc3c21 [Example 126, 1-(3-Ethyl-5-fluoropyridin-4-yl)-7-methoxy-3-methyl-8-(1-methyl-1H-1,2,3-triazol-4-yl)-1,3-dihydroimidazo-[4,5-c] quinolin-2-one] | at least 2000 times | at least 2000 times | at least 2000 times | at least 2000 times | – |
| COc1ccc(-c2cc3c(cc2OC)ncc2c3n(-c3c(F)cncc3OC)c(=O)n2C)cn1 [Example 137, 1-(3-Fluoro-5-methoxy-pyridin-4-yl)-7-methoxy-8-(6-methoxypyridin-3-yl)-3-methyl-1,3-dihydroimidazo-[4,5-c]quinolin-2-one] | – | – | – | – | at least 2000 times |
| CNC(=O)c1cnc(-n2c(=O)n(C)c3cnc4cc(OC)c(-c5cnn(C)c5)cc4c32)c(F)c1 [Example 138, 5-Fluoro-6-[7-methoxy-3-methyl-8-(1-methyl-1H-pyrazol-4-yl)-2-oxo-2,3-dihydroimidazo[4,5-c]-quinolin-1-yl]-N-methyl-nicotinamid] | – | – | – | at least 2000 times | – |
| COc1cc2ncc3c(c2cc1-c1cnn(C)c1)n(-c1cn(C)nc1F)c(=O)n3C [Example 141, 1-(3-Fluoro-1-methyl-1H-pyrazo1-4-yl)-7-methoxy-3-methyl-8-(1-methyl-1H-pyrazol-4-yl)-1,3-dihydro-imidazo[4,5-c]quinolin-2-one] | – | – | – | at least 2000 times | – |
| COc1cc2ncc3c(c2cc1-c1cn(C)nc1C)n(-c1c(F)cncc1OC(F)F)c(=O)n3C [Example 147, 1-(3-Difluoromethoxy-5-fluoropyridin-4-yl)-8-(1,3-dimethyl-1H-pyrazol-4-yl)-7-methoxy-3-methyl-1,3-dihydroimidazo[4,5-c]-quinolin-2-one] | – | – | – | at least 2000 times | – |
| CCc1cnccc1-n1c(=O)n(C)c2cnc3cc(OC)c(-c4cnn(CC)c4)cc3c21 [Example 157, 8-(1-Ethyl-1H-pyrazol-4-yl)-1-(3-ethylpyridin-4-yl)-7-methoxy-3-methyl-1,3-dihydroimidazo[4,5-c] quinolin-2-one] | – | – | – | at least 2000 times | – |
| COc1cc2ncc3c(c2cc1-c1cnn(C)c1)n(-c1ncc(OC2CNC2)cc1F)c(=O)n3C [Example 205, 1-[5-(Azetidin-3-yloxy)-3-fluoropyridin-2-yl]-7-methoxy-3-methyl-8-(1-methyl-1H-pyrazol-4-yl)-1,3-dihydroimidazo[4,5-c]-quinolin-2-one] | at least 2000 times | at least 2000 times | at least 2000 times | – | – |
